# Reference: patent publication US11279774B2, “Cyclodextrin dimers, compositions thereof, and uses thereof” (UNDERDOG PHARMACEUTICALS, INC., priority 2019, dated 2022)
# Legend:
# [1] = Turbidity assay (in vitro solubility assay), 7KC suspension; type: physicochemical; conditions: 7KC vs cholesterol
# Method: This single concentration of cyclodextrin is used in order to standardize the test results. To perform the test, the samples are incubated for 30 mins at 37 C, and then absorbance at 350 nm is measured, e.g., using a spectrophotometer plate reader. Relative turbidity is determined by dividing the measured turbidity in the presence of the cyclodextrin to the baseline turbidity without the cyclodextrin. A given cyclodextrin has greater affinity for 7KC than cholesterol if the relative turbidity of the 7KC suspension is lower than the relative turbidity of the cholesterol solution.
# [2] = test system: blood cells (whole blood); test: Extraction of 7KC and cholesterol from blood cells (ex vivo whole blood, LC-MS/MS); type: cell-based, human; conditions: whole blood incubated 3 hours at 37C; for plasma (serum) cholesterol levels: mass spectrometry
# Method: Blood was collected from healthy volunteers by licensed phlebotomists. The test substances or PBS alone (negative control) were added to whole blood at various concentrations and incubated for 3 hours at 37C. Blood was then spun down and serum collected. Serum was frozen and then processed for mass spec.
# Plasma free 7-ketocholesterol was determined by LC-MS/MS following protein precipitation and extraction with acetonitrile and derivatization with the novel quaternary aminooxy (QAO) mass tag reagent, Amplifex Keto Reagent (AB Sciex, Framingham, Mass., USA), which has been used in the analysis of testosterone (Star-Weinstock [et al.], Analytical Chemistry, 84(21):9310-9317. (2012)).
# A 50 μL sample of plasma was spiked with 0.5 ng of the internal standard, d7-7-ketocholesterol (Toronto Research Chemicals, North York, Ontario, CA) prepared at 0.1 ng/μL in ethanol. The sample was treated with 250 μL of acetonitrile, vortex mixed, centrifuged to remove protein at 12,000×g for 10 min. The supernatant was dried under vacuum and then treated with 75 μL of QAO reagent. The working reagent was prepared by mixing 0.7 mL of Amplifex keto reagent with 0.7 mL of Amplifex keto diluent to prepare a 10 mg/mL stock. This stock was then diluted 1:4 with 5% acetic acid in methanol to a final working concentration of 2.5 mg/mL. The mixture was allowed to react at room temperature for two days before LC-MS/MS analysis.
# Standards of 7-ketocholesterol (Toronto Research Chemicals, North York, Ontario, CA) were prepared from 1 to 100 ng/ml in charcoal stripped plasma, SP1070, (Golden West Biological, Temecula, Calif., USA) and in phosphate buffered saline. There was residual 7-ketocholesterol detected in the stripped plasma, so the standards from PBS were used.
# QAO-7-ketocholesterol derivatives were analyzed using a 4000 Q-TRAP hybrid/triple quadrupole linear ion trap mass spectrometer (SCIEX, Framingham, Mass., USA) with electrospray ionization (ESI) in positive mode. The mass spectrometer was interfaced to a Shimadzu (Columbia, Md.) SIL-20AC XR auto-sampler followed by 2 LC-20AD XR LC pumps.
# The instrument was operated with the following settings: source voltage […], GS1 50, GS2 50, CUR 20, TEM 550 and CAD gas medium. Compounds were quantified with multiple reaction monitoring (MRM) and transitions optimized by infusion of pure derivatized compounds as presented in Table 1 below. The bold transitions were used for quantification.
# Separation was achieved using a Gemini 3μ C6-phenyl 110 Å, 100×2 mm column (Phenomenex, Torrance, Calif., USA) kept at 35° C. using a Shimadzu (Columbia, Md.) CTO-20AC column oven. The gradient mobile phase was delivered at a flow rate of 0.5 ml/min, and consisted of two solvents, A: 0.1% formic acid in water, B: 0.1% formic acid in acetonitrile. The initial concentration of solvent B was 20% followed by a linear increase to 60% B in 10 min, then to 95% B in 0.1 min, held for 3 minutes, decreased back to starting 20% B over 0.1 min, and then held for 4 min. […]
# Data were acquired using Analyst 1.6.2 (SCIEX, Framingham, Mass., USA) and analyzed with Multiquant 3.0.1 (SCIEX, Framingham, Mass., USA) software. Sample values were calculated from standard curves generated from the peak area ratio of the analyte to internal standard versus the analyte concentration that was fit to a linear equation with 1/× weighting. The lower limit of quantification was 1 ng/mL with an accuracy of 102% and precision (relative standard deviation) of 8.5%. […]
# blood cells = test: Hemolysis assay; type: cell-based; conditions: 7.5 mM, three hours at 37 C
# Method: For the test solutions, the amount of PBS varied depending on the concentration of cyclodextrin being tested. Samples were tested in triplicate. 50 μL of blood was added to each sample with PBS and cyclodextrin solution (stocks also made in PBS) to achieve the appropriate concentration in a final volume of 200 ul. 5% Triton X-100 was used as the positive control and PBS was the negative control. Once all the samples were mixed the samples were placed into a 37 C incubator for three hours with agitation. The positive control was 100% hemolyzed by Triton X-100 detergent. Once the samples were out of incubation, they were diluted by the same factor in a 96 hydrograde plate and normalized to the positive control absorbance, which is around 1.1. The absorbance is read at 540 nm. The average of the samples was then corrected by subtracting the negative control. The experiment was run three times, and the error bars are the standard error of the mean (Melanga [et al.], Journal of Pharmaceutical Sciences, 105(9):2921-31. (2016)), (Kiss [et al.], European Journal of Pharmaceutical Sciences, 40(4):376-80. (2010)).
substance,measurement,setting,value
"large-face butyl-linked hydroxy-propyl beta-cyclodextrin HP(βCD-BUT-βCD), DS˜3 [DS3 butyl dimer]",specificity for 7KC over cholesterol (turbidity),[1],affinity and specificity for 7KC
same,specificity for 7KC over cholesterol (turbidity),[1]; listed as HPβCD-butyl-DS3,greater specificity for 7KC over cholesterol
"large-face butyl-linked hydroxy-propyl beta-cyclodextrin HP(βCD-BUT-βCD), DS˜8 [DS8 HPβCD dimers]",removal of 7KC from blood cells (plasma free 7KC),[2],removed substantial quantities of 7KC
same,plasma (serum) cholesterol levels,[2],unperturbed
same,plasma (serum) cholesterol levels,[2]; listed as HPβCD dimer,not perturbed
same,plasma (serum) cholesterol levels,[2]; listed as HPβCD dimers (DS˜8),does not appreciably impact plasma cholesterol levels
same,removal of 7KC from blood cells (plasma free 7KC),[2]; listed as HPβCD dimers (DS˜8),much more efficiently than HPβCD monomers
"large-face triazole-linked beta-cyclodextrin (βCD-(Triazole)1-BCD, DS=0) [CD-triazole-CD DS 0]",specificity for 7KC over cholesterol (turbidity),[1],specificity for 7KC over cholesterol
same,hemolysis,blood cells,~5%
large-face triazole-linked beta-cyclodextrin HP(βCD-Triazole-βCD) DS˜3 [HPβCD -triazole-DS3],specificity for 7KC over cholesterol (turbidity),[1],greater specificity for 7KC over cholesterol
same,specificity for 7KC over cholesterol (turbidity),[1]; listed as Triazole-linked HPβCD dimer (DS˜3),affinity and specificity for 7KC
same,specificity for 7KC over cholesterol (turbidity),[1]; listed as triazole dimers labeled DS 3,greater specificity than DS 6 or DS 7 dimers
